The values that follow come from patent publication US9657312B2, “Replication competent pseudo-type retrovirus vector system” (Inje University Industry-Academic Cooperation Foundation, priority 2012, dated 2017).

This series deals with U-87 MG cells. The series can be described thus: MTT assay of cytotoxicity of vector-infected cells treated with GCV. It is filed as cell-based, human. Particulars: normal (non-infected) cells. The method, then:
In order to measure a degree of cytotoxicity of the cells infected with the spRCR-TK vector when treated with GCV in vitro, MTT assay was carried out. First, a vector carrying a therapeutic gene, TK, instead of a GFP gene of the Env vector was prepared. Then, the 293T cells were transfected with the prepared vector and a Gag-pol vector, so as to manufacture the spRCR-TK vector. Then, the U-87 MG cells were infected with the virus of the spRCR-TK vector, and maintained for 14 days. Afterwards, the infected cells and non-infected cells were inoculated into a 96-well plate. […] The GCV treatment period was divided as the 1st, 2nd, 3rd, and 4th day, to perform MTT assay.
In general terms: Formazan colour is commonly taken as a measure of viable cells.

As to `Nc1nc(O)c2ncn(COC(CO)CO)c2n1` [GCV, Ganciclovir], the “GCV concentration from which normal cells show cytotoxicity” value was at least 70 µg/mL.
